Values quoted from earlier work in article PMC10377753, “Pharmacokinetic and pharmacodynamic properties of polymyxin B in Escherichia coli and Klebsiella pneumoniae murine infection models” (Journal of Antimicrobial Chemotherapy, 2023).

System: plasma proteins
Conditions: mouse, spiked pooled plasma, ultracentrifugation; cited from earlier work
Excerpt: Protein binding of polymyxin B is known to be high. However, a difference was found between the current study (unbound fraction 20%) compared with previous studies (8.6% for polymyxin B,[8] 8.4% for colistin[5]), which affects the PTA. In the present study, ultrafiltration was used for determining the unbound fraction, whilst ultracentrifugation was used in the other studies. With the ultrafiltration method, correction for the NSB to the ultrafiltration membranes was needed. In addition, differences in mouse plasma used for determination of polymyxin B protein binding may (partly) explain the ...

With colistin as the substance, how does the Unbound fraction read?
The Unbound fraction was 8.4%.
